Each structure is given as a SMILES string.

These results are taken from patent US20160206550A1, “STROMAL DELLS DERIVED CONDITIONED MEDIUM, METHOD OF OBTAINING SAID CONDITIONED MEDIUM COMPOSITIONS, FORMULATIONS AND APPLICATIONS THEREOF” (STEMPEUTICS RESEARCH PVT. LTD., priority 2013, published 2016).

The test system of the assay is HFF-1 cells. Put plainly: Cytoprotective/viability restorative effect against tbOH damage (MTT). The class given is cell-based, human. To be noted: 100 μM, positive control in serum free medium. The protocol: Cytoprotective viability restorative effects of 10×CM generated by process 2 against oxidative damage in dermal fibroblast cells upon treatment with 300 μM of tert-butyl hydroperoxide (tbOH) for 2 h and post treatment of damaged fibroblast with 10×CM for 48 h is evaluated by MTT assay. Treatment of HFF-1 cells with 300 μM of tbOH leads to 35% decrease in cellular viability in SFM treated as compared to untreated cells. The cytoprotection obtained with 10×CM is 11%, 18% and 12% higher at the doses of 5%, 10% and 50% respectively as compared to respective 10× control medium treated cells against tbOH damage (FIG. 10). In this assay, serum free medium with ascorbic acid (SFM+AA) is used as a positive control. Treatment of HFF-1 cells with 100 μM ascorbic acid (AA) also leads to 12% cytoprotection against tbOH damage. […] 10×CM has shown a trend in the ability to restore the viability of oxidative stressed fibroblast cells at the concentrations 5%, 10% and 50%. Maximum activity is observed at 10% 10×CM.

For the compound `O=C1O[C@H]([C@@H](O)CO)C(O)=C1O` [ascorbic acid], the “cytoprotection against tbOH damage” value was found to be 12%.
